Test results taken from US8575203B2, “Chemical compounds” (Boehringer Ingelheim International GmbH, priority 2010, dated 2013).

These compounds were tested against Recombinant human PDK1 enzyme (aa 52-556) (Homo sapiens (Human), UniProt O15530) (assay: PDK1 kinase assay). Settings: in vitro kinase assay, His6-PDK1 (aa 52-556), PDKtide, P33-ATP.
Format: biochemical
Method: The activity of the compounds according to the invention on the kinase PDK1 which inhibits the signal transduction pathway is determined in an in vitro kinase assay with recombinantly prepared protein:
Recombinant human PDK1 enzyme (aa 52-556) linked at its N-terminal end to His6 is isolated from baculovirus-infected insect cells. Purified enzyme may be obtained for example from the University of Dundee, Scotland. The following components are combined in a well of a 96-well round-based dish (Greiner bio-one, No. 650101): • 15 μL of compound to be tested in varying concentrations (e.g. starting at 10 μM, and diluted in steps of 1:5) in APT buffer (50 mM Tris/Cl pH 7.5; 0.05% β-mercaptoethanol; 10 mM Mg-acetate; 0.0166% Tween 20; 3.33% DMSO) • 15 μL His6-PDK1 (aa 52-556) 3.33 ng/well) and PDKtide ([…]), synthesised by Pepceuticals Limited, Nottingham, United Kingdom; 25 μM final concentration); His6-PDK1 and PDKtide are together diluted accordingly in assay buffer (50 mM tris pH 7.5, 0.05% β-mercaptoethanol, 10 mM Mg-acetate); PDKtide is present in this mixture as an 83.3 μM solution. These 30 μl are routinely incubated for 30 min at RT. • 20 μL ATP solution (25 μM ATP with 1.0 μCi/well gamma-P33-ATP). The final concentration of Tween 20 is 0.005%.
The reaction is started by adding the ATP solution and the mixture is incubated for 90 min at RT. At the start of the reaction the dishes are shaken gently. The reaction is stopped by the addition of 50 μL/well of 500 mM phosphoric acid (H3PO4) and incubated for about 20 min at RT. The precipitate is transferred by harvesting onto filter plates (96-well microtitre filter plate: UniFilter GF/C; Perkin Elmer; No. 6005174), then washed 6 times with 50 mM H3PO4 and dried at 60° C. Then the plate is stuck down with sealing tape, 25 μL/well of scintillation solution (Microscint 0; Perkin Elmer; No. 6013611) are added and the amount of P33 precipitated is measured using the Wallac Betacounter. The measured data are evaluated using Graphpad Prism software.

Sequence of Recombinant human PDK1 enzyme (aa 52-556) (O15530 52-556): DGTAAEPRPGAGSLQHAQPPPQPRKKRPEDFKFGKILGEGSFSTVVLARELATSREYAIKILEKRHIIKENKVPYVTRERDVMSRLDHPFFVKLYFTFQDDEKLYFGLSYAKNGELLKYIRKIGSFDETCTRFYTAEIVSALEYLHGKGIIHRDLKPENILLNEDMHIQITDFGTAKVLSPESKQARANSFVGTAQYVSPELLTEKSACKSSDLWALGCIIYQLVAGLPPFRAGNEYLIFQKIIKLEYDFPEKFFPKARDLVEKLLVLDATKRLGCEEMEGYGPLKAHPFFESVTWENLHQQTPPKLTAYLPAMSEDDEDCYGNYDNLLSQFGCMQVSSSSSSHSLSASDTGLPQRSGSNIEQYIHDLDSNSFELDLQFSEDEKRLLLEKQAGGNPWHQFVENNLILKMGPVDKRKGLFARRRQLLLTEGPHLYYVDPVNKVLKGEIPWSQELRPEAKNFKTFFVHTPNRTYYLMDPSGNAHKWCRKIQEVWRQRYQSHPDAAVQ

Compound	IC50 [µM]
O=C(NCC#Cc1ccc2nccc(OCC3CCOC3)c2c1)c1cccn(C(CO)c2ccc(F)c(F)c2)c1=O (stereo not drawn) [I-125.4]	0.012
O=C(NCC#Cc1ccc2nccc(OCC3CCOCC3)c2c1)c1cncn(Cc2ccc(F)c(F)c2)c1=O [I-125.6]	0.026
CC(N)CCOc1ccnc2ccc(C#CCNC(=O)c3cccn(Cc4ccc(F)c(F)c4)c3=O)cc12 (stereo not drawn) [I-125.7]	0.032
O=C(NCC#Cc1ccc2nccc(OCC3CCCOC3)c2c1)c1cccn(Cc2ccc(F)c(F)c2)c1=O (stereo not drawn) [I-125.8]	0.046
CN1CC[C@H](COc2ccnc3ccc(C#CCNC(=O)c4cccn(Cc5cc(F)c(F)c(F)c5)c4=O)cc23)C1 [I-125.9]	0.002
CC(c1ccc(F)c(F)c1)n1cccc(C(=O)NCC#Cc2ccc3nccc(OC[C@H]4CCN(C)C4)c3c2)c1=O (stereo partly drawn) [I-125.10]	0.003
CC(c1cc(F)c(F)c(F)c1)n1cccc(C(=O)NCC#Cc2ccc3nccc(OC[C@H]4CCN(C)C4)c3c2)c1=O (stereo partly drawn) [I-125.11]	0.004
CN1CC[C@@H](COc2ccnc3ccc(C#CCNC(=O)c4cccn(Cc5cc(F)c(F)c(F)c5)c4=O)cc23)C1 [I-125.12]	0.006
CCN(CC)CCCOc1ccnc2ccc(C#CCNC(=O)c3cncn(Cc4ccc(F)c(F)c4)c3=O)cc12 [I-125.13]	0.006
CC(C)(C)COc1ccnc2ccc(C#CCNC(=O)c3cccn(C(CO)c4ccc(F)c(F)c4)c3=O)cc12 (stereo not drawn) [I-125.14]	0.06
CCOc1ccnc2ccc(C#CCNC(=O)c3cccn(C(CO)c4ccc(F)c(F)c4)c3=O)cc12 (stereo not drawn) [I-125.15]	0.011
O=C(NCC#Cc1ccc2nccc(OCC3CCOCC3)c2c1)c1cccn(C(CO)c2ccc(F)c(F)c2)c1=O (stereo not drawn) [I-125.16]	0.011
CN1CCC[C@@H](COc2ccnc3ccc(C#CCNC(=O)c4cccn(Cc5cc(F)c(F)c(F)c5)c4=O)cc23)C1 [I-125.17]	0.002
CC(c1cc(F)c(F)c(F)c1)n1cccc(C(=O)NCC#Cc2ccc3nccc(OC[C@@H]4CCCN(C)C4)c3c2)c1=O (stereo partly drawn) [I-125.18]	0.002
O=C(NCC#Cc1ccc2nccc(OC[C@@H]3CCCN(CCN4CCOCC4)C3)c2c1)c1cccn(Cc2cc(F)c(F)c(F)c2)c1=O [I-125.19]	0.003
C[C@@H](c1cc(F)c(F)c(F)c1)n1cccc(C(=O)NCC#Cc2ccc3nccc(OC[C@@H]4CCCN(CCN5CCOCC5)C4)c3c2)c1=O [I-125.20]	0.017
CN1CCC[C@@H](COc2ccnc3ccc(C#CCNC(=O)c4cccn(C(CO)c5cc(F)c(F)c(F)c5)c4=O)cc23)C1 (stereo partly drawn) [I-125.21]	0.002
CC(C)N1CCC[C@@H](COc2ccnc3ccc(C#CCNC(=O)c4cccn(Cc5ccc(F)c(F)c5)c4=O)cc23)C1 [I-125.22]	0.003
O=C(NCC#Cc1ccc2nccc(OC[C@@H]3CCCNC3)c2c1)c1cccn(Cc2ccc(F)c(F)c2)c1=O [I-125.23]	0.004
CN(C)CCCOc1ccnc2ccc(C#CCNC(=O)c3cccn(C(CO)c4ccc(F)c(F)c4)c3=O)cc12 (stereo not drawn) [I-125]	0.002
CCNc1c([N+](=O)[O-])cnc2ccc(C#CCNC(=O)c3cncn(Cc4ccc(F)c(F)c4)c3=O)cc12 [I-126]	0.086

Compound	IC50 [µM]
CNc1c([N+](=O)[O-])cnc2ccc(C#CCNC(=O)c3cncn(Cc4ccc(F)c(F)c4)c3=O)cc12 [I-127]	0.098
CC(C)Nc1c([N+](=O)[O-])cnc2ccc(C#CCNC(=O)c3cncn(Cc4ccc(F)c(F)c4)c3=O)cc12 [I-128]	0.116
CNc1ncnc2ccc(C#CCNC(=O)c3cncn(Cc4ccc(F)c(F)c4)c3=O)cc12 [II-1]	0.012
CN1CC(Nc2ncnc3ccc(C#CCNC(=O)c4cncn(Cc5ccc(F)c(F)c5)c4=O)cc23)C1 [II-2]	0.171
CN(CCc1ccccc1)c1ncnc2ccc(C#CCNC(=O)c3cncn(Cc4ccc(F)c(F)c4)c3=O)cc12 [II-3]	0.134
CN(C)c1ncnc2ccc(C#CCNC(=O)c3cncn(Cc4ccc(F)c(F)c4)c3=O)cc12 [II-4]	0.026
CN(Cc1ccccc1)c1ncnc2ccc(C#CCNC(=O)c3cncn(Cc4ccc(F)c(F)c4)c3=O)cc12 [II-5]	0.016
O=C(NCC#Cc1ccc2ncnc(NCCc3ccco3)c2c1)c1cncn(Cc2ccc(F)c(F)c2)c1=O [II-6]	0.098
O=C(NCC#Cc1ccc2ncnc(NCCc3ccccn3)c2c1)c1cncn(Cc2ccc(F)c(F)c2)c1=O [II-7]	0.105
COc1ccc(CCNc2ncnc3ccc(C#CCNC(=O)c4cncn(Cc5ccc(F)c(F)c5)c4=O)cc23)cc1OC [II-8]	0.091
O=C(NCC#Cc1ccc2ncnc(N3CCNCC3)c2c1)c1cncn(Cc2ccc(F)c(F)c2)c1=O [II-9]	0.443
CN(C)CCNc1ncnc2ccc(C#CCNC(=O)c3cncn(Cc4ccc(F)c(F)c4)c3=O)cc12 [II-10]	0.229
O=C(NCC#Cc1ccc2ncnc(NCCCn3ccnc3)c2c1)c1cncn(Cc2ccc(F)c(F)c2)c1=O [II-11]	0.135
O=C(NCC#Cc1ccc2ncnc(NCCc3cccs3)c2c1)c1cncn(Cc2ccc(F)c(F)c2)c1=O [II-12]	0.161
O=C(NCC#Cc1ccc2ncnc(NCC(O)c3ccccc3)c2c1)c1cncn(Cc2ccc(F)c(F)c2)c1=O (stereo not drawn) [II-13]	0.184
COCCCNc1ncnc2ccc(C#CCNC(=O)c3cncn(Cc4ccc(F)c(F)c4)c3=O)cc12 [II-14]	0.158
CC(CNc1ncnc2ccc(C#CCNC(=O)c3cncn(Cc4ccc(F)c(F)c4)c3=O)cc12)c1ccccc1 (stereo not drawn) [II-15]	0.445
O=C(CNc1ncnc2ccc(C#CCNC(=O)c3cncn(Cc4ccc(F)c(F)c4)c3=O)cc12)c1ccccc1 [II-16]	0.218
NC(=O)[C@@H](Cc1ccccc1)Nc1ncnc2ccc(C#CCNC(=O)c3cncn(Cc4ccc(F)c(F)c4)c3=O)cc12 [II-17]	0.488
COc1ccc(CCNc2ncnc3ccc(C#CCNC(=O)c4cncn(Cc5ccc(F)c(F)c5)c4=O)cc23)cc1 [II-18]	0.041
CN(c1ncnc2ccc(C#CCNC(=O)c3cncn(Cc4ccc(F)c(F)c4)c3=O)cc12)C(C)(C)C [II-19]	0.5

Compound	IC50 [µM]
CN(c1ncnc2ccc(C#CCNC(=O)c3cncn(Cc4ccc(F)c(F)c4)c3=O)cc12)C1CC1 [II-20]	0.013
O=C(NCC#Cc1ccc2ncnc(NC3CCOCC3)c2c1)c1cncn(Cc2ccc(F)c(F)c2)c1=O [II-21]	0.515
CN(c1ncnc2ccc(C#CCNC(=O)c3cncn(Cc4ccc(F)c(F)c4)c3=O)cc12)C1CCCCC1 [II-22]	0.371
O=C(NCC#Cc1ccc2ncnc(NC3CCN(Cc4ccccc4)CC3)c2c1)c1cncn(Cc2ccc(F)c(F)c2)c1=O [II-23]	0.142
O=C(NCC#Cc1ccc2ncnc(NC3CCN(CCO)CC3)c2c1)c1cncn(Cc2ccc(F)c(F)c2)c1=O [II-24]	0.077
CC1CN(C)CCC1Nc1ncnc2ccc(C#CCNC(=O)c3cncn(Cc4ccc(F)c(F)c4)c3=O)cc12 (stereo not drawn) [II-25]	0.126
CNc1ncnc2ccc(C#CCNC(=O)c3cccn(Cc4ccsc4)c3=O)cc12 [II-26]	0.199
O=C(NCC#Cc1ccc2ncnc(N3CCCC3)c2c1)c1cccn(Cc2ccc(F)c(F)c2)c1=O [II-27]	0.052
CNCCCN(C)c1ncnc2ccc(C#CCNC(=O)c3cccn(Cc4ccc(F)c(F)c4)c3=O)cc12 [II-28]	0.11
CN1CCCN(c2ncnc3ccc(C#CCNC(=O)c4cccn(Cc5ccc(F)c(F)c5)c4=O)cc23)CC1 [II-29]	0.156
CC(=O)N[C@@H]1CCN(c2ncnc3ccc(C#CCNC(=O)c4cccn(Cc5ccc(F)c(F)c5)c4=O)cc23)C1 [II-30]	0.021
O=C(NCC#Cc1ccc2ncnc(N3CC[C@H](O)C3)c2c1)c1cccn(Cc2ccc(F)c(F)c2)c1=O [II-31]	0.114
CC(C)(CO)CNc1ncnc2ccc(C#CCNC(=O)c3cccn(Cc4ccc(F)c(F)c4)c3=O)cc12 [II-32]	0.124
NC(=O)CCNc1ncnc2ccc(C#CCNC(=O)c3cccn(Cc4ccc(F)c(F)c4)c3=O)cc12 [II-33]	0.079
CN(CCCO)c1ncnc2ccc(C#CCNC(=O)c3cccn(Cc4ccc(F)c(F)c4)c3=O)cc12 [II-34]	0.059
NC(=O)CNc1ncnc2ccc(C#CCNC(=O)c3cccn(Cc4ccc(F)c(F)c4)c3=O)cc12 [II-35]	0.059
CC1(CNc2ncnc3ccc(C#CCNC(=O)c4cccn(Cc5ccc(F)c(F)c5)c4=O)cc23)COC1 [II-36]	0.468
O=C(NCC#Cc1ccc2ncnc(NCC(O)CO)c2c1)c1cccn(Cc2ccc(F)c(F)c2)c1=O (stereo not drawn) [II-37]	0.044
CN1CCC(CNc2ncnc3ccc(C#CCNC(=O)c4cccn(Cc5ccc(F)c(F)c5)c4=O)cc23)C1 (stereo not drawn) [II-38]	0.097
CN1CCCC1CCNc1ncnc2ccc(C#CCNC(=O)c3cccn(Cc4ccc(F)c(F)c4)c3=O)cc12 (stereo not drawn) [II-39]	0.137
CN(C)C1CCN(c2ncnc3ccc(C#CCNC(=O)c4cccn(Cc5ccc(F)c(F)c5)c4=O)cc23)CC1 [II-40]	0.074
